Laboratory results reported in patent US12286418B2, “Compounds and methods for treating or preventing bacterial infections” (priority 2019, dated 2025).

Assays:
OXA-48 [1] = molecular target: T1, OXA-48 (Klebsiella pneumoniae, UniProt Q6XEC0); test: Surface plasmon resonance binding to immobilized 6x-His-OXA-48; design: His-tag (N, cleaved yes); made in house; host or cells: E. coli BL21(DE3), pET28a; settings: SPR
Method: 6×-His-OXA-48 was capture/amine-coupled on a Ni-NTA Chip at a density of ˜5000 RU. Running buffer was 10 mM HEPES pH 7.4, 150 NaCl, 50 mM NaHCO3, 0.005% Tween-20, 2% DMSO. Concentration gradients of each compound were created from 0-15 μM using OneStep Injections in at least triplicates for meropenem and CDD-97.
(§1) Synthon-derivatives were created, without DNA tags, based on high OXA-48 enrichment and minimal NTC enrichment. The activity of these derivatives was assessed using inhibition assays with purified OXA-48. Compounds were tested for the ability to inhibit OXA-48 from hydrolyzing nitrocefin, a chromogenic β-lactam substrate routinely used in β-lactamase inhibition assays. Nitrocefin contains a conjugated ring system that is readily hydrolyzed and produces a visible color shift from yellow to red upon hydrolysis (O'Callaghan, et al., 1972, Antimicrob. Agents Chemother. 1:283-288). The rate of nitrocefin hydrolysis in the presence of a constant amount of OXA-48 and increasing concentrations of a given compound of interest was monitored at 482 nm. These rates were plotted against compound concentration to determine the inhibition constant (Ki) against OXA-48. Compounds with promising activity were also assessed for binding using surface plasmon resonance (SPR). SPR was performed using 6×-His-OXA-48 enzyme that was amine-coupled on a Ni-NTA Chip. Meropenem, which covalently binds and inhibits OXA-48, was used as a positive control.

OXA-24 = molecular target: T2, OXA-24 (Acinetobacter baumannii, UniProt Q8RLA6); test: Inhibition of other OXA enzymes (nitrocefin reporter): OXA-24; assay type: biochemical
T2 construct: His-tag (N, cleaved yes); made in house; host or cells: E. coli BL21 (DE3), pET28a
Method: (§2) Compounds were tested for inhibition of a given OXA enzyme from hydrolyzing nitrocefin using a Tecan plate reader. […] A control with no compound was included in each run. For each compound concentration, the velocity of nitrocefin hydrolysis was determined at 482 nm and fit to the Morrison equation. […] The average Ki of separate experiments, each of which consisted of duplicate runs, is reported and error was quantified as the standard deviation.
(§3) The high sequence diversity of class D β-lactamases has made it difficult to find a class-wide inhibitor. The inhibition activity of CDD-97 was tested against other OXA-enzymes of varying sequence identity, to assess its spectrum of activity (Table 2). OXA-10 is regarded as the canonical OXA, however it is not a major clinical threat as it mainly hydrolyzes penicillins. OXA-58 is another carbapenemase unable to hydrolyze extended-spectrum cephalosporins like OXA-48. Both OXA-48 and OXA-58 are predominantly found in gram-negative bacteria, however OXA-48 is prevalent in the Enterobacteriaceae family (mainly Klebsiella pneumoniae), while OXA-58 is found in the Moraxellaceae family (mainly Acintobacter baumannii). While K. pneumoniae is more rampant in the clinics and most OXA-mediated carbapenem is due to OXA-48, A. baumannii nosocomial infections are a growing issue. OXA-163 is an OXA-48 like enzyme also prevalent in Enterobacteriaceae. […]

OXA-48 [2] = molecular target: T1, OXA-48; test: OXA-48 inhibition assay using nitrocefin as reporter; assay type: biochemical; design: His-tag (N, cleaved yes); made in house; host or cells: E. coli BL21(DE3), pET28a
Method: Nitrocefin, a chromogenic β-lactam substrate, was used as a reporter in all inhibition assays with the various OXA enzymes and various compounds. Nitrocefin is not stable in aqueous solution long-term. For these assays, nitrocefin stocks were prepared in DMSO, stored at −20° C. and used within 2 weeks of dissolving. To avoid freeze-thawing, fresh stocks were always used. The Km of nitrocefin was determined prior to inhibition assays by performing steady state kinetics. Assays were performed using a DU800 spectrophotometer at room temperature in 50 mM HEPES pH 7.5, 15 mM NaHCO3, and 0.02% tween 20 buffer. Hydrolyzed nitrocefin was detected at 482 nm. For a single experiment, a series of at least 5 nitrocefin concentrations were tested against the given enzyme in duplicate and the initial velocities were measured and fit to the Michaelis-Menten equation. Experiments were repeated twice, and error reported is the standard error of the mean.
as §2
as §1, with “The” for “Synthon-derivatives were created, without DNA tags, based on high OXA-48 enrichment and minimal NTC enrichment. The”, “Compounds with promising activity were also assessed for binding using surface plasmon resonance (SPR).” left out

OXA-163 = OXA-163 (Klebsiella pneumoniae, UniProt Q6XEC0, DEL214-217/S212D); test: Inhibition of other OXA enzymes (nitrocefin reporter): OXA-163; assay type: biochemical, Enterobacteriaceae
Method: as §2, §3

T1 sequence (Q6XEC0 23-265, looked up): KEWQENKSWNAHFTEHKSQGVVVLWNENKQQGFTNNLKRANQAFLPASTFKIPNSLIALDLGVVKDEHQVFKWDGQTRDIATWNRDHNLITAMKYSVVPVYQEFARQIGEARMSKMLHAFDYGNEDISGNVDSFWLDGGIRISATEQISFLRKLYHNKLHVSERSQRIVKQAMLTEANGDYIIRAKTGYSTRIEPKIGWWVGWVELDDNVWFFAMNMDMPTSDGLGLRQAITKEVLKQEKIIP
Chain of OXA-163 (Q6XEC0 23-211, added parts left off, stated change not applied): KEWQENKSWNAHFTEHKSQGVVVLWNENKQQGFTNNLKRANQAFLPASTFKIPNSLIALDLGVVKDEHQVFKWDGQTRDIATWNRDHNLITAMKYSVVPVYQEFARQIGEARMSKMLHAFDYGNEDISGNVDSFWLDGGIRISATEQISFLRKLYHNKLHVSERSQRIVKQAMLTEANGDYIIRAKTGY
T2 sequence (Q8RLA6 entry or part of it): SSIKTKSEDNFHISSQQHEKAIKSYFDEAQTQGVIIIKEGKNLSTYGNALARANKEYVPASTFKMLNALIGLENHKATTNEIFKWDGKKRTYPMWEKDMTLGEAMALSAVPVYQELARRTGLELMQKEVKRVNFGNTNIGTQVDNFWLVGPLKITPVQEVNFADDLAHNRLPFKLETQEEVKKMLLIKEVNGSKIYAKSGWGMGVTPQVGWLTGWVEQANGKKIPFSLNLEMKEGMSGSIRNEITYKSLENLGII

CCOc1ccccc1N1CCN(c2ncnc(N3CCC(C(=O)O)CC3)n2)CC1 [CDD-97, 1-(4-(4-(2-ethoxyphenyl)piperazin-1-yl)-1,3,5-triazin-2-yl)piperidine-4-carboxylic acid]
KD fold lower (weaker) than that of Meropenem (OXA-48 [1]; OXA-48): ~3 fold
Kd (OXA-48 [1]; immobilized His-OXA-48): 1200 ± 4 nM
Ki (OXA-24): 14000 ± 1000 nM
potency/activity against OXA-48 in words (OXA-48 [2]; purified OXA-48, compared with CDD-97 where a derivative): sub-micromolar Ki
Ki (OXA-48 [2]; purified OXA-48, nitrocefin hydrolysis, Morrison fit): 530 ± 80 nM
Ki (OXA-163): 440 ± 20 nM
